Values joined by “and” are separate entries in the source; they are usually repeats but may differ in a detail not shown here. Equal values may be shown once. Where a name gives a salt, the structure may show the parent alone.
Tests used:
[1] = target: T1, PI3Kα (Homo sapiens, UniProt P42336); assay: PI3Kα biochemical assay (ADP-Glo); conditions: first value of PI3K-α/δ cell; ATP 10 μM
T1 construct: purchased ThermoFisher PV4788
Experimental: (§1) PI3Kα and PI3Kδ Biochemical Assay:
(§2) PI3K[…] and PI3K[…] Kinase reactions were performed in a 5 μL volume in low-volume 384-well plates. Typically, PerkinElmer model 6008280 plates were used. The 1× kinase reaction buffer consisted of 50 mM HEPES pH 7.5, 3 mM MgCl2, 0.03% CHAPS, 1 mM EGTA, 100 mM NaCl, and 2 mM DTT. PI3K[…] (ThermoFisher, #PV4788; the final PI3K[…] concentration: 120 ng/mL) or PI3K[…] enzyme solution (ThermoFisher, #PV6451; the final PI3K[…] concentration: 250 ng/mL) was added to the plate, compounds were serially diluted to the final maximal concentration of 100 nM (3 fold series dilution, a total of 10 doses), and the PIP2:3PS (the final concentration: 10 µg/mL) and ATP solution (the final ATP concentration: 10 μM) was added to the 384-well plate. The plate was incubated at 25° C. for 1 hour. ADP-Glo reagent buffer (5 μL) was added to each well. The plate was sealed and incubated for 40 min at 25° C. ADP-Glo detection buffer (10 μL) was added to each well, and the plate was incubated for 40 min at 25° C. and read on a plate reader configured for Luminescence.

[2] = target: T2, PI3Kδ (Homo sapiens, UniProt O00329); assay: PI3Kδ biochemical assay (ADP-Glo); conditions: second value of PI3K-α/δ cell; ATP 10 μM
T2 construct: purchased ThermoFisher PV6451
Experimental: as §1, §2

[3] = target: T3, hERG (Homo sapiens, UniProt Q12809); assay: In-vitro hERG inhibition assay (manual patch clamp, hERG-T-REx HEK 293 cells); format: cell-based
T3 construct: host or cells: T-REx HEK293
Experimental: In-Vitro hERG Inhibition Assay:
The hERG-T-REx™ HEK 293 cells (Invitrogen, K1236) were generated by transfecting the hERG coding sequence in the Tet-regulated expression vector pT-Rex-DEST30 into cells expressing the Tet-repressor (T-Rex™ HEK293), thereby producing cells that can be induced to express high level of hERG channels. The cells were cultured in a medium containing of 85% DMEM, 10% dialyzed FBS, 0.1 mM NEAA, 25 mM HEPES, 100 U/mL Penicillin-Streptomycin, 5 μg/mL Blasticidin, and 400 μg/mL Geneticin. The cells were split using TrypLE™ Express (Gibco, 12604) about three times a week and maintained between ˜40% to ˜80% confluence. Before the assay, the cells were induced with doxycycline (Sigma, D9891) at 1 μg/mL for 48 hours. On the experiment day, the induced cells were resuspended and plated onto the coverslips at 5×10^5 cells/per 6 cm cell culture dish prior to use. The hERG channel-mediated current was acquired by manual patch clamp recording systems equipped with amplifiers (HEKA, EPC10 and Molecular Devices, multiclamp 700B) and the inverted phase contrast microscope (Olympus, IX51/71/73). Glass pipettes were prepared by micropipette puller (Sutter, P97 and Narishige, PC-10) and qualified by the pipette resistance in the range of […]. The internal pipette solution was 140 mM KCl, 2 mM MgCl2, 10 mM EGTA, 5 mM MgATP, and 10 mM HEPES (pH adjusted to 7.35 with KOH), and the external buffer was 132 mM NaCl, 4 mM KCl, 3 mM CaCl2), 0.5 mM MgCl2, 11.1 mM glucose, and 10 mM HEPES (pH adjusted to 7.35 with NaOH). The whole-cell configuration was maintained with access resistance continuously monitored (<15 M[…]). The hERG current was elicited by depolarizing membrane to +30 mV for 4.8 sec, and the voltage was set back to −50 mV for 5.2 sec to remove the inactivation and measure the deactivating tail current. The maximum amount of tail current size was used to determine hERG current amplitude. To evaluate the hERG inhibition, the blank vehicle and test articles were perfused to cells under whole-cell recording configuration through the liquid perfusion system (ALA, VM8 gravity-flow delivery system). For dose response assay, test article was applied to the cells accumulatively from low to high concentrations. A positive control (Dofetilide) was used in the experiments to ensure the performance of the cells and operations as major part of method validation. The percentage hERG current inhibition was fitted against dose concentrations to build the dose-response curve and determine IC50.

[4] = target: T4, DNA-PK (Homo sapiens, UniProt P78527); assay: DNA-PK enzyme-linked immunosorbent assay; format: biochemical; conditions: ATP 20 μM, GST-p53 substrate
T4 construct: purchased Invitrogen PR9107A
Experimental: DNA-PK Enzyme-Linked Immunosorbent Assay:
On day one, a 96-well plate (ThermoFisher, Cat #: 442404) was coated with GST-p53 (1-101) peptide (purified by Pharmaron, BCS department) by diluting 3 μg of GST-p53 in each well with 0.1 M Na2CO3/NaHCO3 (pH 9.6). The plate was incubated overnight at 4° C. On the second day, the coating buffer was removed, and the plate was washed twice with PBST (1×PBS containing 0.1% Tween-20). The DNA-PK enzyme solution (Invitrogen, #PR9107A; the final DNA-PK concentration: 0.1 μg/mL) was then added. The compounds were serially diluted to the final maximal concentration of 100 nM (3 fold series dilution, a total of 10 doses), and an ATP solution (the final ATP concentration: 20 μM) was added to the plate. Incubate the plate at 25° C. for 1 hour. The plate was washed three times with PBST (1×PBS containing 0.1% Tween-20) and blocked with a solution of PBST and 1% BSA at 4° C. overnight. The third day, the plate was washed four times with PBST (1×PBS containing 0.1% Tween-20). Anti-phospho-p53 primary antibody (cell signaling Technology, #9286, Phospho-p53 (Ser15) (16G8) Mouse mAb) (1/1000) was added to each well. The plate was sealed, incubated 1 h at 37° C., and washed four times with PBST (1×PBS containing 0.1% Tween-20). An HRP-linked secondary antibody (Cell signaling Technology, #7076, Anti-mouse IgG, HRP-linked Antibody) (1/1000) (100 μL) was added to each well. The plate was sealed with tape, incubated 30 min at 37° C., and washed four times with PBST (1×PBS containing 0.1% Tween-20). At this time, 100 μL of TMB (Cell signaling Technology, #7004) substrate were added to each well. The plate was sealed with tape and incubated the plate 10 min at 37° C. Stop solution (Cell signaling Technology, #7002) (100 μL) was added to each well, and the plate was subjected to the absorption detection at 450 nm.

T3 sequence (Q12809 whole entry): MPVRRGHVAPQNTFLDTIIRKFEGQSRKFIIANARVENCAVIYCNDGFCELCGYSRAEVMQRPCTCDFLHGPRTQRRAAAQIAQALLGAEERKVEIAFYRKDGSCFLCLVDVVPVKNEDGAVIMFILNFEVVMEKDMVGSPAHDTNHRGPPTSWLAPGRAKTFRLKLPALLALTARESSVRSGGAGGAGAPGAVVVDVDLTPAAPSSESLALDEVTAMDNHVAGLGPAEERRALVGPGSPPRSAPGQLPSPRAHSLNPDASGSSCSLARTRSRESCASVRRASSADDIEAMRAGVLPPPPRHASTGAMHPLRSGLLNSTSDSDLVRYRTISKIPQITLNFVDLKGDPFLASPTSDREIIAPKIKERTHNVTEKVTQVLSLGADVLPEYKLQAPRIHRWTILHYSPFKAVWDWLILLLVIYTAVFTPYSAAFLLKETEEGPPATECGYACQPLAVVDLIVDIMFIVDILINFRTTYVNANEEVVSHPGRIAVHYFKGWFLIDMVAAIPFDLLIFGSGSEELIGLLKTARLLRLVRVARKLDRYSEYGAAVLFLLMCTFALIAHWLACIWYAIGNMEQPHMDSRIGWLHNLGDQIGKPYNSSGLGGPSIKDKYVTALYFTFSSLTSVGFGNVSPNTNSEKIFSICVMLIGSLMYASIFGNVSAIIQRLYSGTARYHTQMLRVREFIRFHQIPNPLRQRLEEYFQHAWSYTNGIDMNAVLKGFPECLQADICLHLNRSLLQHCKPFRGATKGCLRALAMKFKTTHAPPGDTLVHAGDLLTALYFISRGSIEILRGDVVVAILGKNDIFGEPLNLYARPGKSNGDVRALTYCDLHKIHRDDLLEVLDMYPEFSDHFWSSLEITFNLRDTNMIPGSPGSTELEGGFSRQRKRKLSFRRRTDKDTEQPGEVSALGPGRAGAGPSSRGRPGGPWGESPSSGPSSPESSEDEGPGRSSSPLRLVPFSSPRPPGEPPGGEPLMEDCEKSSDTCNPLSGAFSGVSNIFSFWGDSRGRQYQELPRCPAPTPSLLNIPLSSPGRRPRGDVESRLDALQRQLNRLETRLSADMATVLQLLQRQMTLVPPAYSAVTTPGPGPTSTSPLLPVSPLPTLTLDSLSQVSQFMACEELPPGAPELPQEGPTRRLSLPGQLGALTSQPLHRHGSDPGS
T2 sequence (O00329 whole entry): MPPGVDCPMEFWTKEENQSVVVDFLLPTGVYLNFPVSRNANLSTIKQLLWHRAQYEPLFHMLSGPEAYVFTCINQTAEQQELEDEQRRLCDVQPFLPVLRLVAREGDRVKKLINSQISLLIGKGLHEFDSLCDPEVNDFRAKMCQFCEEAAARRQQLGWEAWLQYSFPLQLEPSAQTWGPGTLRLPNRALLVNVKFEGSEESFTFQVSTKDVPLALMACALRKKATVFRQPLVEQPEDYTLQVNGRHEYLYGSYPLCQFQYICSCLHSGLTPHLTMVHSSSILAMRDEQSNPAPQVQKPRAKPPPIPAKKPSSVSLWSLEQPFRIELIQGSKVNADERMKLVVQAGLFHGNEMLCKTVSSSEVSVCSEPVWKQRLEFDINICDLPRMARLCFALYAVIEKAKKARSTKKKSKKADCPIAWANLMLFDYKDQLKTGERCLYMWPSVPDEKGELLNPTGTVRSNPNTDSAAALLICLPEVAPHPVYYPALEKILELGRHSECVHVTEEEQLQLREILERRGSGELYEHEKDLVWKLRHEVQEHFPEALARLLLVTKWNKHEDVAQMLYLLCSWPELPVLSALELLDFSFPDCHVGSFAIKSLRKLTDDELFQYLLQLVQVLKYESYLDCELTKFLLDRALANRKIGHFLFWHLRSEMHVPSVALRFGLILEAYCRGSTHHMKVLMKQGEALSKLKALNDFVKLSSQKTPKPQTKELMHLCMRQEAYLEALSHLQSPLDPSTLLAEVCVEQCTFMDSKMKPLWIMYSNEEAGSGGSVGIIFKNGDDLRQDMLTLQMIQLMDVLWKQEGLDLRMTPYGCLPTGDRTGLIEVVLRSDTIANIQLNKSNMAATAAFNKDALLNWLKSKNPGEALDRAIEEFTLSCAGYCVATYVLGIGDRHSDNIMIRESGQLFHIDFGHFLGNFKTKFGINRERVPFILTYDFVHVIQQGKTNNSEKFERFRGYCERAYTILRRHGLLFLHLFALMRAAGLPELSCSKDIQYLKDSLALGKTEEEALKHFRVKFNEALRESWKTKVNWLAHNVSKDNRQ
T2 sequence (P27986 whole entry partner): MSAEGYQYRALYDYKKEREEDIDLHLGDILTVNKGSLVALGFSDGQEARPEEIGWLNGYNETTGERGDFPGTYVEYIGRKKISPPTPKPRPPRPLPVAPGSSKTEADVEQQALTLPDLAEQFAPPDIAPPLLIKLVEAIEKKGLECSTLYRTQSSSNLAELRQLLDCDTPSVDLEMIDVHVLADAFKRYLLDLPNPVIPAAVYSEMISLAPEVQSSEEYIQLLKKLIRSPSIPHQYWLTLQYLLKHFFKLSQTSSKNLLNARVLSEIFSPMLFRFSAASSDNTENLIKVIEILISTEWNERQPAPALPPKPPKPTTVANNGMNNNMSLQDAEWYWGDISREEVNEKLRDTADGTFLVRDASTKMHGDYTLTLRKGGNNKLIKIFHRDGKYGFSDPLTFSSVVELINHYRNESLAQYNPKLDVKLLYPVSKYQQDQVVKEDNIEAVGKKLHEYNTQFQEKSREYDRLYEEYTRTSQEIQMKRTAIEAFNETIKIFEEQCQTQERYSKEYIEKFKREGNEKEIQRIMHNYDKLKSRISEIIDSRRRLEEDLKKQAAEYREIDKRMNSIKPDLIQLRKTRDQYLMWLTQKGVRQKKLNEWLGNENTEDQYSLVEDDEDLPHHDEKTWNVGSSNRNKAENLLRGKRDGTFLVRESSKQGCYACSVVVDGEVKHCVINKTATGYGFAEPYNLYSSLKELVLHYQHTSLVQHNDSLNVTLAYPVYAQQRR
T1 sequence (P42336 whole entry): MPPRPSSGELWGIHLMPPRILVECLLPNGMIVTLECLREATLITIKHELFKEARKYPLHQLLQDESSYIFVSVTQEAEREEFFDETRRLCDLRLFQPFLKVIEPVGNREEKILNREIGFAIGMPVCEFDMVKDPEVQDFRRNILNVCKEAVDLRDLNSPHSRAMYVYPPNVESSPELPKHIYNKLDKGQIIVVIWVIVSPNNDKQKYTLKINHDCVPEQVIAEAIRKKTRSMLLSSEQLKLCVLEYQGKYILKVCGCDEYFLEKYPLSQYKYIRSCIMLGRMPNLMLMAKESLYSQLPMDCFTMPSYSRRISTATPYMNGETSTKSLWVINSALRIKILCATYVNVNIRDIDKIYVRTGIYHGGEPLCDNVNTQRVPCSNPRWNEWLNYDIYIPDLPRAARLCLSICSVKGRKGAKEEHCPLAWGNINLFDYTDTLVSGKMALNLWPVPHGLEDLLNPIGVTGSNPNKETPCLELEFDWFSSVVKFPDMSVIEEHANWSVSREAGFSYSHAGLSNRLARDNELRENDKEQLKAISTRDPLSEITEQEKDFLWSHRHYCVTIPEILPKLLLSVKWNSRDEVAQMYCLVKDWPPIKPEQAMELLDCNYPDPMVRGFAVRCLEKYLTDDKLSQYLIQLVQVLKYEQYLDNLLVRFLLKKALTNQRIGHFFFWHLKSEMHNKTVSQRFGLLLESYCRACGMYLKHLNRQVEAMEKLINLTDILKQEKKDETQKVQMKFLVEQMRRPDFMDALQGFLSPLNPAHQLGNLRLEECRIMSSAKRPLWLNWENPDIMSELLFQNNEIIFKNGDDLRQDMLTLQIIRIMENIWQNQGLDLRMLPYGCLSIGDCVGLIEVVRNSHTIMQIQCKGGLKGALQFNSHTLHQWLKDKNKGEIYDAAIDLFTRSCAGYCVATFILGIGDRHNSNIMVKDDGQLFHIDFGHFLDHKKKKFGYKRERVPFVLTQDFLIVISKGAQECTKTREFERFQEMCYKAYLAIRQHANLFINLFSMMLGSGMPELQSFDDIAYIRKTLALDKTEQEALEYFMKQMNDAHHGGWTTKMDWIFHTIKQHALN
T1 sequence (P27986 whole entry partner): as the sequence (P27986 whole entry partner) above

Row | SMILES | IC50 [1] [µM] | IC50 [2] [µM] | IC50 [4] | IC50 ([3]; tail current) [µM] | IC50 ([3]; human, hERG-T-REx HEK 293 cells expressing hERG, pH 7.35, tail current) [µM]
1 | CC[C@H]1C[C@@]2(C1)C(=O)N(C)c1cnc3cc(F)c(-c4cnc(OCCNC(C)C)c(NS(C)(=O)=O)c4)cc3c12 [Compound 566, trans-N-(5-(3-Ethyl-7′-fluoro-3′-methyl-2′-oxo-2′,3′-dihydrospiro[cyclobutane-1,1′-pyrrolo[2,3-c]quinolin]-8′-yl)-2-(2-(isopropylamino)ethoxy)pyridin-3-yl)methanesulfonamide] | > 0.1 | 0.014 | 0.00103 µM | 2.1 | 
2 | CC(C)NCCOc1ncc(-c2cc3c(cc2F)ncc2c3[C@]3(C[C@@H](OCc4ccccc4)C3)C(=O)N2C)cc1NS(C)(=O)=O [Compound 567, trans-N-(5-(3-(Benzyloxy)-7′-fluoro-3′-methyl-2′-oxo-2′,3′-dihydrospiro[cyclobutane-1,1′-pyrrolo[2,3-c]quinolin]-8′-yl)-2-(2-(isopropylamino)ethoxy)pyridin-3-yl)methanesulfonamide] | > 0.1 | > 0.1 | 0.0027 µM | 5.5 | 
3 | CC(C)NCCOc1ncc(-c2cc3c4c(cnc3cc2F)N(C)C(=O)C42CCC2)cc1NS(C)(=O)=O [Compound 569, N-(5-(7′-Fluoro-3′-methyl-2′-oxo-2′,3′-dihydrospiro[cyclobutane-1,1′-pyrrolo[2,3-c]quinolin]-8′-yl)-2-(2-(isopropylamino)ethoxy)pyridin-3-yl)methanesulfonamide] | 0.016 | 0.073 | 0.00063 µM |  | > 30
4 | CC(C)NCCOc1ncc(-c2cc3c(cc2F)ncc2c3[C@]3(C[C@H](OCc4ccccc4)C3)C(=O)N2C)cc1NS(C)(=O)=O [Compound 572, cis-N-(5-(3-(Benzyloxy)-7′-fluoro-3′-methyl-2′-oxo-2′,3′-dihydrospiro[cyclobutane-1,1′-pyrrolo[2,3-c]quinolin]-8′-yl)-2-(2-(isopropylamino)ethoxy)pyridin-3-yl)methanesulfonamide] | 0.023 | 0.015 | 0.00032 µM | 7.5 | 
5 | CC[C@H]1C[C@]2(C1)C(=O)N(C)c1cnc3cc(F)c(-c4cnc(OCCNC(C)C)c(NS(C)(=O)=O)c4)cc3c12 [Compound 573, cis-N-(5-(3-Ethyl-7′-fluoro-3′-methyl-2′-oxo-2′,3′-dihydrospiro[cyclobutane-1,1′-pyrrolo[2,3-c]quinolin]-8′-yl)-2-(2-(isopropylamino)ethoxy)pyridin-3-yl)methanesulfonamide] | 0.018 | 0.012 | 0.0003 µM | 3 | 
6 | CN1C(=O)C2(CCC2)c2c1cnc1ccc(-c3cnc(N4CC(N(C)C)C4)c(NS(C)(=O)=O)c3)cc21 [Compound 574, N-(2-(3-(Dimethylamino)azetidin-1-yl)-5-(3′-methyl-2′-oxo-2′,3′-dihydrospiro[cyclobutane-1,1′-pyrrolo[2,3-c]quinolin]-8′-yl)pyridin-3-yl)methanesulfonamide hydrochloride] | 0.00012 | 0.003 | 0.00103 µM | > 30 | 

Now from value to compound, other results behind:

Row | IC50 [1] [µM] | IC50 [2] [µM] | IC50 [4] | SMILES | IC50 ([3]; tail current) [µM] | IC50 ([3]; human, hERG-T-REx HEK 293 cells expressing hERG, pH 7.35, tail current) [µM]
7 | 0.018 | 0.054 | 0.00079 µM | CC(C)NCCOc1ncc(-c2cc3c4c(cnc3cc2F)N(C)C(=O)C42CCC2)cc1NS(=O)(=O)C(C)C [Compound 568, N-(5-(7′-Fluoro-3′-methyl-2′-oxo-2′,3′-dihydrospiro[cyclobutane-1,1′-pyrrolo[2,3-c]quinolin]-8′-yl)-2-(2-(isopropylamino)ethoxy)pyridin-3-yl)propane-2-sulfonamide] | 14 | 
8 | 0.021 | 0.055 | 0.00063 µM | CCS(=O)(=O)Nc1cc(-c2cc3c4c(cnc3cc2F)N(C)C(=O)C42CCC2)cnc1OCCNC(C)C [Compound 570, N-(5-(7′-Fluoro-3′-methyl-2′-oxo-2′,3′-dihydrospiro[cyclobutane-1,1′-pyrrolo[2,3-c]quinolin]-8′-yl)-2-(2-(isopropylamino)ethoxy)pyridin-3-yl)ethanesulfonamide] | 10.5 | 
9 | 0.062 |  | 0.00067 µM and 0.00094 µM | CC(C)NCCOc1ncc(-c2cc3c4c(cnc3cc2F)N(C)C(=O)C42CN(C(C)C)C2)cc1NS(C)(=O)=O [Compound 571, N-(5-(7′-Fluoro-1-isopropyl-3′-methyl-2′-oxo-2′,3′-dihydrospiro[azetidine-3,1′-pyrrolo[2,3-c]quinolin]-8′-yl)-2-(2-(isopropylamino)ethoxy)pyridin-3-yl)methanesulfonamide] | 5.6 | 

From patent publication US20220142995A1, “DUAL ATM AND DNA-PK INHIBITORS FOR USE IN ANTI-TUMOR THERAPY” (XRAD Therapeutics, Inc., priority 2019, published 2022)
